Reference: publication PMC10573254, “Development of Novel Class of Phenylpyrazolo[3,4-d]pyrimidine-Based Analogs with Potent Anticancer Activity and Multitarget Enzyme Inhibition Supported by Docking Studies” (International Journal of Molecular Sciences, 2023)
Where two headings read alike, the source gives them in different places.

Key:
MCF-7 cells [1] = assay: Cell cycle analysis (propidium iodide flow cytometry); format: cell-based, human; details: MCF-7, 3.81 μM for 24 h (text: 1 μM)
EGFR^T790M = EGFR^T790M (Homo sapiens, UniProt P00533, T790M); assay: In vitro EGFR T790M kinase inhibitory assay
Sequence of EGFR^T790M (P00533 25-1210 T790M): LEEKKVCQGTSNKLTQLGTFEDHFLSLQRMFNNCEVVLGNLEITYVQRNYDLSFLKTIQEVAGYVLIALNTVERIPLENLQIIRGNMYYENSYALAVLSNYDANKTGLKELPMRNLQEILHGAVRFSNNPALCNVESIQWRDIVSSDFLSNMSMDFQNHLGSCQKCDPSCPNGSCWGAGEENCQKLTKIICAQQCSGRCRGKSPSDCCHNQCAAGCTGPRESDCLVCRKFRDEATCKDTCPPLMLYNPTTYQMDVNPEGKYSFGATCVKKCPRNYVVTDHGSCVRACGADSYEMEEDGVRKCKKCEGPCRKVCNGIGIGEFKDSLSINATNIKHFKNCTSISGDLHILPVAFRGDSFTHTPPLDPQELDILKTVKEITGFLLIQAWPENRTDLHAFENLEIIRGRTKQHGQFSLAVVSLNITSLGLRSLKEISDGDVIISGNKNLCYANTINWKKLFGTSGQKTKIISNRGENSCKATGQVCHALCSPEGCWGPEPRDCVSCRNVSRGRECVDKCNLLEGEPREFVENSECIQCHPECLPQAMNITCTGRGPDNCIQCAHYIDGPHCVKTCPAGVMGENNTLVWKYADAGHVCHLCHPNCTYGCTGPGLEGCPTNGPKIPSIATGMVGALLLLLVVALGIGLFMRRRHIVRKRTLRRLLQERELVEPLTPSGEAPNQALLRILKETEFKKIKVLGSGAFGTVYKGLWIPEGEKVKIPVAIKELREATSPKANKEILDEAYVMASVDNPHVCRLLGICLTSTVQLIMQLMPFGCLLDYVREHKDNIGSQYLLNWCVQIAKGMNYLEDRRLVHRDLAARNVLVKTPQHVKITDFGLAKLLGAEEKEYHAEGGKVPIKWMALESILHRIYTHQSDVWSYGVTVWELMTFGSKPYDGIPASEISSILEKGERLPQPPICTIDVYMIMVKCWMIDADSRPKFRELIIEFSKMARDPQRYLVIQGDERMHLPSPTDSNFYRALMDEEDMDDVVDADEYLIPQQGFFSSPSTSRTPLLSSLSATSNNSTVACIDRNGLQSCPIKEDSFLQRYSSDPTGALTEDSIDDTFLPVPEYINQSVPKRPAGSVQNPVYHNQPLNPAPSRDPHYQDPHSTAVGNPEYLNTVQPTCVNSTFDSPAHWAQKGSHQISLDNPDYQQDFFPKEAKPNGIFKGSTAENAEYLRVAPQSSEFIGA
Experimental: (§4) The assays were conducted in Vacsera (Giza, Egypt). Curve fitting was performed using GraphPad Prism. Data are represented as means ± SD from three independent experiments.
Assay : EGFR-T490M kinase assay
Reader : Tecan-spark reader
Kit used : BPS bioscience EGFR assay kit.

EGFR^WT = EGFR^WT (Homo sapiens, UniProt P00533); assay: In vitro EGFR enzyme inhibitory assay; format: biochemical
Sequence of EGFR^WT (P00533 25-1210): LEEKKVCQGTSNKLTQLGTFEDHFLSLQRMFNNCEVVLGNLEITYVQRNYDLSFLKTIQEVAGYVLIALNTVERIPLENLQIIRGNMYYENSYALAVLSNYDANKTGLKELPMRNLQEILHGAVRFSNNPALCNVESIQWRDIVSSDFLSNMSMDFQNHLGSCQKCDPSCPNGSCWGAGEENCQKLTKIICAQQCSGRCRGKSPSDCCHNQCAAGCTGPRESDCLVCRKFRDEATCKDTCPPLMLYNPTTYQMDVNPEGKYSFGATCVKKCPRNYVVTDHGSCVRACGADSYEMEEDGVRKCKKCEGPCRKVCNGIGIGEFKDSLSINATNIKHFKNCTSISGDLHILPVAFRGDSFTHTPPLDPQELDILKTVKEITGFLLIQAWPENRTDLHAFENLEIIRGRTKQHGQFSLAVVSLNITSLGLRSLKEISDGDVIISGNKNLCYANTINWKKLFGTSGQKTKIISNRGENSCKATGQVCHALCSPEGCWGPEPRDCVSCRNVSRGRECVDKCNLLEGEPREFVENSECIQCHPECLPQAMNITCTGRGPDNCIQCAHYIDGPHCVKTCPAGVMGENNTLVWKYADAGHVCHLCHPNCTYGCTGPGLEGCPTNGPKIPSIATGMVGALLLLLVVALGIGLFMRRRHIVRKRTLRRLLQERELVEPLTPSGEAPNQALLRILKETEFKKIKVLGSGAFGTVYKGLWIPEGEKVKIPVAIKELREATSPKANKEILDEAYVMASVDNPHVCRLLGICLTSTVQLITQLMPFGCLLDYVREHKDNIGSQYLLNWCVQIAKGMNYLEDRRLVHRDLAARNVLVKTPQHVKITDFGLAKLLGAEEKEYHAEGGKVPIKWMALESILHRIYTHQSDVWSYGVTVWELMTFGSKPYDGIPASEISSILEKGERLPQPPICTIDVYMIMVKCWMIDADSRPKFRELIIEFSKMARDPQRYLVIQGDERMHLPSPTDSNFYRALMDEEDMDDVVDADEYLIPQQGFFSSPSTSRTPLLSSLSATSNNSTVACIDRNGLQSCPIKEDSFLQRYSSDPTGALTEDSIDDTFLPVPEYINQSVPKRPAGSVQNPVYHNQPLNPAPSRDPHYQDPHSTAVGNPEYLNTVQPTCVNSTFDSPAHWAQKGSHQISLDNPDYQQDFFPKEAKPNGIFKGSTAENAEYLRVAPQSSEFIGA
Experimental: as §4
Reader : Tecan Spark Reader

[2] = test system: MCF-7, HCT116, and HePG-2; assay: MTT assay against three malignant cell lines (summary); format: cell-based; details: Homo sapiens, read-out: IC50 cytotoxicity (range over cell lines)
Experimental: According to our design, the tested compounds are classified into four categories based on the length and the chemotype of the spacer (Figure 3). In the first category, we used monosubstituted hydrazone linker. […] The second category is represented by […] hydrazone linker.
(§1) The cytotoxic activity was assessed using the 3-(4,5-dimethylthiazol-2-yl)-2,5-diphenyl tetrazolium bromide (MTT) colorimetric assay, as reported previously. Doxorubicin was used as a reference standard, and DMSO was used as a negative control. Briefly, the designated cell lines were cultured at a concentration of 5 × 10^4 cell/well in 96-well plates. The cells were incubated for 24 h under optimum conditions. Following this, the designated molecules were introduced (in serial dilutions from 0 to 50 μg/mL), and the cells were incubated for an additional 24 h. Following this, the media were withdrawn, and 100 μL of fresh medium was added. Then, 10 µL of the 12 mM MTT stock solution was administered to each well. The plates were then incubated for 4 h. […] An 85-μL aliquot of the media was removed from the wells, and 50 µL of DMSO was added to each well and mixed thoroughly with the pipette and incubated at 37 °C for 10 min. Then, the optical density was measured at 590 nm with the microplate reader (Sunrise, TECAN, Inc., Morrisville, NC, USA).

MCF-7 cells [3] = assay: Annexin V-FITC/PI apoptosis assay; format: cell-based, human; details: MCF-7, 3.81 μM
Experimental: We used annexin V-binding studies via flow cytometer to confirm the apoptosis induction by our compound. The apoptotic nature of 5i against MCF-7 cells was tested via flow cytometry detection after double-staining with Annexin V-FITC and propidium iodide (PI).
Annexin V-FITC apoptosis assay was conducted utilizing the Annexin V-FITC/PI double staining detection kit (BD Pharmingen, San Diego, CA, USA), as described elsewhere.

VEGFR-2 = VEGFR-2 (Homo sapiens, UniProt P35968); assay: In vitro VEGFR2 enzyme inhibitory assay; format: biochemical
Sequence of VEGFR-2 (P35968 20-1356): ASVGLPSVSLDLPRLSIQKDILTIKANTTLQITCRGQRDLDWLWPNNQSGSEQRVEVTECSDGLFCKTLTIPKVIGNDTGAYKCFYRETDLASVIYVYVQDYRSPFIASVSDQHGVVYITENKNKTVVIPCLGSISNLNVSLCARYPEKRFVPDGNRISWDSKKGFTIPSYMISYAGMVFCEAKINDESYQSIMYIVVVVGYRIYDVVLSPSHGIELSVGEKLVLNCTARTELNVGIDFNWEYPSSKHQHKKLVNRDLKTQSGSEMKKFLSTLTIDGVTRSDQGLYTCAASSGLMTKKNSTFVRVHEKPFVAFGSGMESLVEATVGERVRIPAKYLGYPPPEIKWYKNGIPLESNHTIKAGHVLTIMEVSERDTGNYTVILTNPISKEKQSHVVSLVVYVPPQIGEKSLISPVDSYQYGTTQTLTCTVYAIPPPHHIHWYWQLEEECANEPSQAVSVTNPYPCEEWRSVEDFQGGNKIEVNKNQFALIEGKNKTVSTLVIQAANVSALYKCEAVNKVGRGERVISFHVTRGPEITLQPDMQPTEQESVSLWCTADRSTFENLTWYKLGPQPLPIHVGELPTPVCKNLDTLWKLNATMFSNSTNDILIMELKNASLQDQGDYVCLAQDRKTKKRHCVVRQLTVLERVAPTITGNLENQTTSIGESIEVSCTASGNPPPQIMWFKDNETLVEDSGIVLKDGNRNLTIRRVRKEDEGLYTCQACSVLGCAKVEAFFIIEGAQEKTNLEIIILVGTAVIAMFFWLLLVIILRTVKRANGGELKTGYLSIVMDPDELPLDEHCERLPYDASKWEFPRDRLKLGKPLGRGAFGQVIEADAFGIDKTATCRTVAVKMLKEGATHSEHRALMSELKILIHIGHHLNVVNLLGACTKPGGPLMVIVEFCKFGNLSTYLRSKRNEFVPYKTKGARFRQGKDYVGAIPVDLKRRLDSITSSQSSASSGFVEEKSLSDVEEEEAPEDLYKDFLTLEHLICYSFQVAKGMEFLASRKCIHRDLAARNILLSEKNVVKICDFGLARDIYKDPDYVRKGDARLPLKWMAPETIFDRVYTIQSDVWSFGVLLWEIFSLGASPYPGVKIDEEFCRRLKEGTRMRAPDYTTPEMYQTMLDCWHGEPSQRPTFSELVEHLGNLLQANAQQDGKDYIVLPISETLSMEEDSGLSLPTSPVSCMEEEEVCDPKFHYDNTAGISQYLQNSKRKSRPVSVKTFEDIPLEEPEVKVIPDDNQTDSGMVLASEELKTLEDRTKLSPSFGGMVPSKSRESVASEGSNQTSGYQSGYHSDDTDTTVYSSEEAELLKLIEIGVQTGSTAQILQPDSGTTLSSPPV
Experimental: (§2) Curve fitting was performed using GraphPad Prism.
(§3) (1 picture or pasted object on this page, not shown here)

HCT-116 = assay: MTT cytotoxicity assay, HCT-116; format: cell-based; details: Homo sapiens
Experimental: The cytotoxic activity was assessed using the 3-(4,5-dimethylthiazol-2-yl)-2,5-diphenyl tetrazolium bromide (MTT) colorimetric assay, as reported previously [62, 63]. […] Briefly, the designated cell lines were cultured at a concentration of 5 × 10^4 cell/well in 96-well plates. The cells were incubated for 24 h under optimum conditions. Following this, the designated molecules were introduced (in serial dilutions from 0 to 50 μg/mL), and the cells were incubated for an additional 24 h. Following this, the media were withdrawn, and 100 μL of fresh medium was added. Then, 10 µL of the 12 mM MTT stock solution was administered to each well. The plates were then incubated for 4 h. Then, the cells were exposed to different compounds at the desired concentrations (0.01, 0.1, 1, 10, and 100 µM) or to 1% dimethyl sulfoxide (DMSO) for 48 and 72 h. […] Then, the optical density was measured at 590 nm with the microplate reader (Sunrise, TECAN, Inc., Morrisville, NC, USA).

Topo-II [4] = assay: In vitro Topo II inhibitory assay; format: biochemical, Human; details: fold, EGFR^WT versus Topo-II
Experimental: as §2, §3

Topo-II [5] = target: T1, Topo-II (Homo sapiens, UniProt Q02880); assay: In vitro Topo II inhibitory assay; format: biochemical
T1 construct: purchased
Experimental: as §2, §3

HePG-2 = assay: MTT cytotoxicity assay, HePG-2; format: cell-based; details: Homo sapiens, HepG2
Experimental: as §1

MCF-7 = assay: MTT cytotoxicity assay, MCF-7; format: cell-based; details: Homo sapiens, MCF7

CC(=NNc1nc(C)nc2c1cnn2-c1ccccc1)c1ccccc1 [Compound 5i, 6-Methyl-1-phenyl-4-(2-(1-phenylethylidene)hydrazinyl)-1H-pyrazolo[3,4-d]pyrimidine]
DNA content %G0-G1 (MCF-7 cells [1]): 49.63% | DNA content %Pre-G1 (MCF-7 cells [1]): 36.06% | DNA content %S (MCF-7 cells [1]): 43.12% | IC50 (EGFR^T790M): 0.56 ± 0.04 µM | EGFR T790M %inh at conc 0.01 (EGFR^T790M; conc 0.01 (conc.ng/ml)): 37% | EGFR T790M %inh at conc 0.1 (EGFR^T790M; conc 0.1 (conc.ng/ml)): 50% | EGFR T790M %inh at conc 1 (EGFR^T790M; conc 1 (conc.ng/ml)): 76% | EGFR T790M %inh at conc 10 (EGFR^T790M; conc 10 (conc.ng/ml)): 89% | EGFR %inh at conc 0.01 (EGFR^WT; conc 0.01, unit not given): 36% | EGFR %inh at conc 0.1 (EGFR^WT; conc 0.1, unit not given): 52% | EGFR %inh at conc 1 (EGFR^WT; conc 1, unit not given): 73% | EGFR %inh at conc 10 (EGFR^WT; conc 10, unit not given): 88% | IC50 (EGFR^WT; supplement lab report, read-out: EGFR IC50 (lab report) (converted)): 0.187 µM | melting point: 245 to 247 °C | IC50 [2]: 3 to 10 µM | Apoptosis Total (MCF-7 cells [3]; 24 h): 36.06% | Necrosis (MCF-7 cells [3]; 24 h): 4.33% | Apoptosis Early (MCF-7 cells [3]; 24 h (text: 48 h)): 12.62% | Apoptosis Late (MCF-7 cells [3]; 24 h (text: 48 h)): 19.11% | VEGFR2 %inh at conc 0.01 (VEGFR-2; conc 0.01, unit not given): 7.5% | VEGFR2 %inh at conc 0.1 (VEGFR-2; conc 0.1, unit not given): 19% | VEGFR2 %inh at conc 1 (VEGFR-2; conc 1, unit not given): 58% | VEGFR2 %inh at conc 10 (VEGFR-2; conc 10, unit not given): 84% | target selectivity index EGFR over VGFR-2 (VEGFR-2; fold, EGFR^WT versus VGFR-2): 20 | IC50 (VEGFR-2; read-out: IC50 VGFR2): 7.6 ± 0.15 µM | IC50 (VEGFR-2; supplement lab report, read-out: VEGFR2 IC50 (lab report) (converted)): 7.58 µM | IC50 (HCT-116; HCT-116, read-out: IC50 HCT-116, MTT, colon cancer cells): 4.38 ± 0.2 µM | IC50 (HCT-116; HCT-116, 24 h incubation, read-out: IC50 HCT116 24 h): 4.38 ± 0.2 µM | IC50 (HCT-116; HCT-116, 48 h incubation, read-out: IC50 HCT116 48 h): 4.01 ± 0.3 µM | IC50 (HCT-116; HCT-116, 72 h incubation, read-out: IC50 HCT116 72 h): 2.76 ± 0.3 µM | target selectivity index EGFR over Topo-II (Topo-II [4]): 66 | TOPO IiB %inh at conc 0.1 (Topo-II [5]; conc 0.1, unit not given): 13% | TOPO IiB %inh at conc 1 (Topo-II [5]; conc 1, unit not given): 27% | TOPO IiB %inh at conc 10 (Topo-II [5]; conc 10, unit not given): 51% | TOPO IiB %inh at conc 100 (Topo-II [5]; conc 100, unit not given): 74% | IC50 (Topo-II [5]; read-out: IC50 Topo-II): 24.7 ± 0.51 µM | IC50 (Topo-II [5]; supplement lab report, Human DNA Topoisomerase 2B Kit, read-out: TOP2a IC50 (lab report) (converted)): 24.7 µM | IC50 (HePG-2; 24 h incubation, read-out: IC50 HePG-2 24 h): 6.38 ± 0.1 µM | IC50 (HePG-2; 48 h incubation, read-out: IC50 HePG-2 48 h): 3.34 ± 0.2 µM | IC50 (HePG-2; 72 h incubation, read-out: IC50 HePG-2 72 h): 2.42 ± 0.2 µM | IC50 (HePG-2; MTT, liver cancer cells, read-out: IC50 HePG-2): 6.38 ± 0.1 µM | IC50 (MCF-7; 24 h incubation, read-out: IC50 MCF-7 24 h): 3.81 ± 0.3 µM | IC50 (MCF-7; 48 h incubation, read-out: IC50 MCF-7 48 h): 3.34 ± 0.2 µM | IC50 (MCF-7; 72 h incubation, read-out: IC50 MCF-7 72 h): 1.24 ± 0.3 µM | IC50 (MCF-7; MTT, breast cancer cells, read-out: IC50 MCF-7): 3.81 ± 0.3 µM
